Data published in patent publication US20110151469A1, “INTERFERON EPSILON (IFNE1) AS A MARKER FOR TARGETED CANCER THERAPY” (PIRAMAL LIFE SCIENCES LIMITED, priority 2008, published 2011).
“Also recorded” adds a separate entry of the source.

Tests used:
[1] = test system: IFNE1 mRNA in HCT116 cells; test: QRT-PCR of IFNE1 transcript level in HCT116 cells treated with CDK and non-CDK inhibitors; type: cell-based, human; settings: 6 hours, P276-00 250 nM, Flavopiridol 200 nM, Fascaplysin 500 nM, Roscovitine 20 μM, Olomoucine 180 μM, DRB 50 μM, 5-Fluorouracil 800 nM, Camptothecin 30 nM, Etoposide 3 μM, Vinblastin 1.5 μM, Quercitin 750 nM, Paclitaxel 600 nM, Doxorubicin 100 nM
Protocol: HCT116 cells were treated with various CDK inhibitors [P276-00 (250 nM), Flavopiridol (200 nM), Fascaplysin (500 nM), Roscovitine (20 μM), Olomoucine (180 μM), 5,6-dichloro-1-beta-D-ribofuranosylbenzimidazole (DRB, 50 μM)] and non-CDK inhibitors [5-Fluorouracil (800 nM), Camptothecin (30 nM), Etoposide (3 μM), Vinblastin (1.5 μM), Quercitin (750 nM), Paclitaxel (600 nM), Doxorubicin (100 nM)] for 6 hours. The level of IFNE1 mRNA was estimated using Real Time RT-PCR. Using Actin gene for normalization, relative IFNE1 expression level was plotted as log fold change.
To study if IFNE1 expression is a result of CDK inhibition, HCT116 cells were treated with a variety of CDK and non-CDK inhibitors and IFNE1 transcript level were measured using quantitative QRT-PCR. HCT116 cells were chosen for this assay because IFNE1 level seems to be most regulated in this cell line. The cells were treated with a variety of CDK inhibitors [P276-00 (250 nM), Flavopiridol (200 nM), Fascaplysin (500 nM), Roscovitine (20 μM), Olomoucine (180 μM), 5,6-dichloro-1-beta-D-ribofuranosylbenzimidazole (DRB) (50 μM)] and non-CDK inhibitors [5-Fluorouracil (800 nM), Camptothecin (30 nM), Etoposide (3 μM), Vinblastin (1.5 μM), Quercitin (750 nM), Paclitaxel (600 nM), Doxorubicin (100 nM)] for 6 hours and the IFNE1 transcript level were estimated. All inhibitors were purchased from Sigma and used at IC50 values described in literature.

[2] = test system: IFNE1 gene in HCT116 xenografts; test: Oligonucleotide microarray expression profiling of IFNE1 in HCT116 xenografts treated with P276-00 or Flavopiridol; type: in vivo, SCID mice
Protocol: (§1) Colon carcinoma (HCT-116) cells were injected into severe combined immunodeficient (SCID) mice intraperitoneally. Xenografts were allowed to grow, typically for 7 days until the tumors reached a size of 5×5 mm before therapeutic agent administration. A total of 56 animals were used for the study. Animals that were treated with two consecutive day administrations of the agent/vehicle were considered as the acute treated group. The acute treated group of animals consisted of 8 sham treated, 10 Flavopiridol (2.5 mg/kg) treated, and P276-00 (35 mg/kg) treated mice. A similar group of animals was treated with either vehicle or agent for 6-7 days consecutively and was considered as the chronic treated group, as discussed below. The differences in the concentrations used reflect the differences in the IC50 values of the two therapeutic agents.
(§2) At the end of the acute/chronic treatments, the xenografts were excised from the animals and RNA was prepared using Trizol reagent (Sigma, USA) as per the manufacturer's protocol. Briefly, xenograft tissues were homogenized under liquid nitrogen and resuspended in Trizol ([…] tissue) followed by chloroform extraction. The RNA was precipitated in isopropanol and the pellet was washed using 70% ethanol. RNA samples thus obtained were resuspended in RNase-DNase free water. Quality and quantity of RNA was measured by spectrometry using ND-1000 spectrometer (Nanodrop, Wilmington, Del., USA).
To account for variability in gene expression in the xenografts before agent treatments, RNA samples from the respective control groups were pooled proportionally. Each of the P276/FP acute treated xenograft was, therefore, compared with pooled acute control RNA samples and the same method was adopted for the chronically treated samples. For microarray hybridization, a total of 20 μg of RNA was used for cDNA synthesis, which was indirectly labeled with Cy3 (pooled control) or Cy5 (individual treated xenograft) fluorescent dyes as described (Chinnaiyan AM et. al., Am J. Pathol. 2001 October; 159(4): 1199-209). A 23,290 oligonucleotide array (Illumina, USA) was spotted using the OmniGrid™ Genemachines. The slides were processed by standard procedures and hybridization was performed in the two-channel mode. Post hybridization, the slides were washed and scanned using GeneTAC UC-4 and images obtained were analyzed using the GenePix Pro 5.1. The median of ratios of intensities (Cy5/Cy3) obtained from the two channels was subjected to Cluster analysis and viewed using the Treeview program. Median of ratios above 2 is considered as significant upregulation of the specific gene in the drug treated xenograft and a value below 0.5 is considered as downregulation of the specific gene in the drug treated xenograft.
A total of 16 hybridizations representing 10 acute treatments (FIG. 1A) and 6 chronic treatments (FIG. 1B) were analyzed. Individual hybridizations were numbered according to acute (A) or chronic (C) treatment followed by the animal number and the respective agent used. For example, A20 (P276) identifies acute treated xenograft with P276-00 in the animal numbered 20.
The values represent the log of median of ratio for IFNE1 gene across different xenografts treated with either P276-00 or Flavopiridol. As mentioned before, a ratio value above 1 indicates a two-fold increase in the gene levels. The Cluster analysis identifies upregulation of IFNE1 consistently across both acute (Table 1A) and chronic (Table 1B) treatments of HCT116 xenografts.

[3] = test system: IFNE1 gene expression in HCT116 xenografts; test: Real Time Quantitative Reverse Transcriptase PCR of IFNE1 in HCT116 xenografts; type: in vivo, SCID mice; settings: normalized to actin
Protocol: as §1, §2
IFNE1 expression in tumor tissues, after exposure to P276-00 or Flavopiridol, was further validated by RTQ-PCR. The primer sequences used for PCR analysis are as follows:
The actin (ACTB) gene is used as control for relative quantification, and the following primer sequences were used for its PCR analysis:
An aliquot of the RNA samples used for the microarray study was also used for Quantitative Real Time Reverse TRasncriptase PCR (QRT-PCR) analysis. […]

[4] = test system: IFNE1 mRNA in HCT116 cells; test: QRT-PCR of IFNE1 level in HCT116 cells treated with P276-00 or Flavopiridol; type: cell-based, human; settings: for IFNE1 level relative to control untreated cells: at most time points (6, 12, 24 hours)
Protocol: (§3) FIGS. 3A, 3B and 3C show expression of IFNE1 in different cancer cell lines treated with P276-00 and Flavopiridol. The different cell lines were treated with the agent for the indicated times and the level of IFNE1 mRNA were estimated using Real Time RT-PCR. Using the Actin gene for normalization, IFNE1 expression level was plotted as log fold change relative to the signal from the control untreated cells.
(§4) The expression of IFNE1 in response to P276-00 or Flavopiridol was also studied in different cancer cell lines such as HCT116, HL-60 (leukemia) and Calu-1. HCT116, Calu-1, H460 and HL-60 cells were obtained from ATCC and were maintained in culture medium with 10% fetal bovine serum. P276-00 and Flavopiridol were synthesized in-house and 10 mM stocks in DMSO were used for the assays. HCT116 (FIG. 3A) cells in culture were treated with P276-00 and Flavopiridol at 200 nM and 250 nM respectively for 6 hours, 12 hours and 24 hours. HL-60 (FIG. 3B) cells were treated with 300 nM of P276-00 and […] of Flavopiridol for 3 hours, 6 hours, 12 hours and 24 hours and Calu-1 (FIG. 3C) cells were treated with 1.2 μM of P276-00 and 450 nM of Flavopiridol for 4 hours, 8 hours, 12 hours, 24 hours and 48 hours. RNA was prepared from the samples and QRT-PCR was performed to estimate level of IFNE1.

[5] = test system: IFNE1 mRNA in HL-60 cells; test: QRT-PCR of IFNE1 level in HL-60 cells treated with P276-00 or Flavopiridol; type: cell-based, human; settings: at most time points (3, 6, 12, 24 hours)
Protocol: as §3, §4

[6] = test system: IFNE1 mRNA in Calu-1 cells; test: QRT-PCR of IFNE1 level in Calu-1 cells treated with P276-00 or Flavopiridol; type: cell-based, human; settings: at most time points (4, 8, 12, 24, 48 hours)
Protocol: as §3, §4

## O=c1[nH]cc(F)c(=O)[nH]1 [5-Fluorouracil]
[1]
  change of IFNE1 mRNA level: do not cause a change

## CC[C@@]1(O)C(=O)OCc2c1cc1n(c2=O)Cc2cc3ccccc3nc2-1 [Camptothecin]
[1]
  change of IFNE1 mRNA level: do not cause a change

## CN1CC[C@@H](c2c(O)cc(O)c3c(=O)cc(-c4ccccc4Cl)oc23)[C@@H]1CO.Cl [Compound P276-00, (+)-trans-2-(2-Chloro-phenyl)-5,7-dihydroxy-8-(2-hydroxymethyl-1-methyl-pyrrolidin-3-yl)-chromen-4-one hydrochloride]
[2]; acute treatment (two consecutive days), xenograft A20, P276-00 35 mg/kg, log base 2 of Cy5/Cy3 vs pooled control
  log of median of ratio for IFNE1 gene: 2.26
[2]; acute treatment, xenograft A2, P276-00 35 mg/kg, log base 2 vs pooled control
  log of median of ratio for IFNE1 gene: 1.107
[2]; acute treatment, xenograft A5, P276-00 35 mg/kg, log base 2 vs pooled control
  log of median of ratio for IFNE1 gene: 1.966
[2]; acute treatment, xenograft A11, P276-00 35 mg/kg, log base 2 vs pooled control
  log of median of ratio for IFNE1 gene: 2.053
[2]; acute treatment, xenograft A23, P276-00 35 mg/kg, log base 2 vs pooled control
  log of median of ratio for IFNE1 gene: 3.252
[2]; chronic treatment (6-7 days consecutively), xenograft C17, P276-00, log base 2 vs pooled control
  log of median of ratio for IFNE1 gene: 0.7715
[2]; chronic treatment, xenograft C11, P276-00, log base 2 vs pooled control
  log of median of ratio for IFNE1 gene: 1.318
[2]; chronic treatment, xenograft C23, P276-00, log base 2 vs pooled control
  log of median of ratio for IFNE1 gene: 1.326
[3]; acute treatment
  xenografts with upregulated IFNE1 level by QRT-PCR: 3 of the 6
[3]; chronic treatment
  xenografts with upregulated IFNE1 level by QRT-PCR: most of the xenografts tested
[4]
  IFNE1 level relative to control untreated cells: significant increase
[5]
  IFNE1 level relative to control untreated cells: significant increase
[6]
  IFNE1 level relative to control untreated cells: significant increase
[1]
  change of IFNE1 mRNA level: upregulation

## OC[C@H]1O[C@@H](n2cnc3cc(Cl)c(Cl)cc32)[C@H](O)[C@@H]1O [DRB, 5,6-dichloro-1-beta-D-ribofuranosylbenzimidazole]
[1]
  change of IFNE1 mRNA level: upregulation

## COc1cccc2c1C(=O)c1c(O)c3c(c(O)c1C2=O)C[C@@](O)(C(=O)CO)C[C@@H]3O[C@H]1C[C@H](N)[C@H](O)[C@H](C)O1 [Doxorubicin]
[1]
  change of IFNE1 mRNA level: do not cause a change

## COc1cc([C@@H]2c3cc4c(cc3[C@@H](O[C@@H]3O[C@@H]5CO[C@@H](C)O[C@H]5[C@H](O)[C@H]3O)[C@H]3COC(=O)[C@H]23)OCO4)cc(OC)c1O [Etoposide]
[1]
  change of IFNE1 mRNA level: do not cause a change

## O=C1c2ccccc2-[n+]2ccc3c([nH]c4ccccc43)c21 [Fascaplysin]
[1]
  change of IFNE1 mRNA level: upregulation

## CN1CC[C@H](c2c(O)cc(O)c3c(=O)cc(-c4ccccc4Cl)oc23)[C@H](O)C1 [Flavopiridol]
[2]; acute treatment, xenograft A3, Flavopiridol 2.5 mg/kg, log base 2 vs pooled control
  log of median of ratio for IFNE1 gene: 2.017
[2]; acute treatment, xenograft A6, Flavopiridol 2.5 mg/kg, log base 2 vs pooled control
  log of median of ratio for IFNE1 gene: 1.121
[2]; acute treatment, xenograft A9, Flavopiridol 2.5 mg/kg, log base 2 vs pooled control
  log of median of ratio for IFNE1 gene: 1.568
[2]; acute treatment, xenograft A15, Flavopiridol 2.5 mg/kg, log base 2 vs pooled control
  log of median of ratio for IFNE1 gene: 1.228
[2]; acute treatment, xenograft A22, Flavopiridol 2.5 mg/kg, log base 2 vs pooled control
  log of median of ratio for IFNE1 gene: 1.17
[2]; chronic treatment, xenograft C6, Flavopiridol, log base 2 vs pooled control
  log of median of ratio for IFNE1 gene: 2.731
[2]; chronic treatment, xenograft C9, Flavopiridol, log base 2 vs pooled control
  log of median of ratio for IFNE1 gene: 1.723
[2]; chronic treatment, xenograft C15, Flavopiridol, log base 2 vs pooled control
  log of median of ratio for IFNE1 gene: 1.595
[3]; acute or chronic not distinguished
  xenografts with IFNE1 up-regulation by QRT-PCR: most of the xenografts tested
[4]; 12 hours, normalized to Actin
  IFNE1 up-regulation, log fold change relative to control untreated cells: up to 7 log fold changes
[4]
  IFNE1 level relative to control untreated cells: significant increase
[5]
  IFNE1 level relative to control untreated cells: significant increase
[6]
  IFNE1 level relative to control untreated cells: significant increase
[1]
  change of IFNE1 mRNA level: upregulation

## CC(=O)O[C@H]1C(=O)[C@@]2(C)[C@H]([C@H](OC(=O)c3ccccc3)[C@]3(O)C[C@H](OC(=O)[C@H](O)[C@@H](NC(=O)c4ccccc4)c4ccccc4)C(C)=C1C3(C)C)[C@]1(OC(C)=O)CO[C@@H]1C[C@@H]2O [Paclitaxel]
[1]
  change of IFNE1 mRNA level: do not cause a change

## O=c1c(O)c(-c2ccc(O)c(O)c2)oc2cc(O)cc(O)c12 [Quercitin]
[1]
  change of IFNE1 mRNA level: do not cause a change

## CC[C@H](CO)Nc1nc(NCc2ccccc2)c2ncn(C(C)C)c2n1 [Roscovitine]
[1]
  change of IFNE1 mRNA level: upregulation; also recorded: potentiated IFNE1 level maximally

## CC[C@]1(O)C[C@@H]2CN(CCc3c([nH]c4ccccc34)[C@@](C(=O)OC)(c3cc4c(cc3OC)N(C)[C@H]3[C@@](O)(C(=O)OC)[C@H](OC(C)=O)[C@]5(CC)C=CCN6CC[C@]43[C@@H]65)C2)C1 [Vinblastin]
[1]
  change of IFNE1 mRNA level: do not cause a change
